“And” between values parts separate entries of the source, which are not always exact repeats. Equal values may be shown once. Toxic doses and inconclusive results are not listed. Rule for the calls: active = survival T/C of 150% or more; inactive = T/C below 125% in these data. Peptide text beside a SMILES is read from it. * marks the point of attachment. Cbz = O=C(OCc1ccccc1)*
Test system: P388 leukemia ip, CD2F1 mice, survival T/C
Assay: NCI In Vivo Anticancer Drug Screen. Data for tumor model P388 Leukemia (intraperitoneal) in CD2F1 (CDF1) mice
Details: endpoint: median survival time, higher = longer survival
Method in brief: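 Mice carrying the transplanted tumor received test compound or vehicle. Survival was recorded in each group, and the value is the treated-group measurement divided by that of the vehicle-treated control group.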

[1] = dose: 50.0 mg/kg/injection, schedule: Q01DX009 (ip), vehicle: saline with Tween-80
[2] = dose: 100.0 mg/kg/injection, schedule: Q01DX009 (ip), vehicle: saline with Tween-80
[3] = dose: 200.0 mg/kg/injection, schedule: Q01DX009 (ip), vehicle: saline with Tween-80
[4] = dose: 50.0 mg/kg/injection, schedule: Q01DX005 (ip), vehicle: Klucel (hydroxypropylcellulose) (HPC)
[5] = dose: 100.0 mg/kg/injection, schedule: Q01DX005 (ip), vehicle: Klucel (hydroxypropylcellulose) (HPC)
[6] = dose: 200.0 mg/kg/injection, schedule: Q01DX005 (ip), vehicle: Klucel (hydroxypropylcellulose) (HPC)
[7] = dose: 60.0 mg/kg/injection, schedule: Q01DX005 (ip), vehicle: saline with Tween-80
[8] = dose: 120.0 mg/kg/injection, schedule: Q01DX005 (ip), vehicle: saline with Tween-80
[9] = dose: 240.0 mg/kg/injection, schedule: Q01DX005 (ip), vehicle: saline with Tween-80
[10] = dose: 50.0 mg/kg/injection, schedule: Q01DX005 (ip), vehicle: saline with Tween-80
[11] = dose: 100.0 mg/kg/injection, schedule: Q01DX005 (ip), vehicle: saline with Tween-80
[12] = dose: 200.0 mg/kg/injection, schedule: Q01DX005 (ip), vehicle: saline with Tween-80
[13] = dose: 12.5 mg/kg/injection, schedule: Q01DX005 (ip), vehicle: Klucel (hydroxypropylcellulose) (HPC)
[14] = dose: 25.0 mg/kg/injection, schedule: Q01DX005 (ip), vehicle: Klucel (hydroxypropylcellulose) (HPC)

Measured: T/C

Cc1cnc(C)c(NN=O)n1
inactive: dose: 3.12 mg/kg/injection, schedule: Q01DX009 (ip), vehicle: saline 101 % of control and 108 % of control | dose: 6.25 mg/kg/injection, schedule: Q01DX009 (ip), vehicle: saline 116 % of control and 122 % of control | dose: 12.5 mg/kg/injection, schedule: Q01DX009 (ip), vehicle: saline 117 % of control

Cc1ccc(C)c(C2NC(=O)c3ccccc3N2)c1 (stereo not given)
inactive: dose: 25.0 mg/kg/injection, schedule: Q01DX009 (ip), vehicle: saline with Tween-80 104 % of control | [1] 104 % of control | [2] 101 % of control | [3] 112 % of control

COc1cccc(/C=N/NC(=O)c2c(-c3ccccc3)noc2C)c1O
inactive: [1] 99 % of control | [2] 100 % of control | [3] 110 % of control

O=C(NC(Cc1ccc(Cl)cc1)C(=O)O)c1cccc(Br)c1 (stereo not given)
inactive: [4] 102 % of control | [5] 100 % of control | [6] 110 % of control

CCC(C)C(NC(=O)CCl)C(=O)O (stereo not given)
inactive: dose: 50.0 mg/kg/injection, schedule: Q01DX009 (ip), vehicle: saline 99 % of control | dose: 100.0 mg/kg/injection, schedule: Q01DX009 (ip), vehicle: saline 96 % of control | dose: 200.0 mg/kg/injection, schedule: Q01DX009 (ip), vehicle: saline 101 % of control

CC1(C)CSC(=S)SC1
inactive: dose: 25.0 mg/kg/injection, schedule: Q04DX002 (ip), vehicle: saline 100 % of control | dose: 50.0 mg/kg/injection, schedule: Q04DX002 (ip), vehicle: saline 97 % of control | dose: 100.0 mg/kg/injection, schedule: Q04DX002 (ip), vehicle: saline with Tween-80 110 % of control | dose: 100.0 mg/kg/injection, schedule: Q04DX002 (ip), vehicle: saline 103 % of control

O=S1(=O)c2ccccc2N(c2ccccc2)c2nnnn21
inactive: [7] 88 % of control | [8] 96 % of control | [9] 99 % of control

O=CNc1ccc2c3c(cccc13)-c1ccccc1-2
inactive: [4] 89 % of control | [5] 97 % of control | [6] 100 % of control

Cc1nc(Nc2c3ccccc3nc3ccccc23)sc1C
inactive: dose: 12.5 mg/kg/injection, schedule: Q04DX002 (ip), vehicle: distilled water + Tween-80 103 % of control | dose: 25.0 mg/kg/injection, schedule: Q04DX002 (ip), vehicle: distilled water + Tween-80 100 % of control | dose: 50.0 mg/kg/injection, schedule: Q04DX002 (ip), vehicle: distilled water + Tween-80 88 % of control | dose: 100.0 mg/kg/injection, schedule: Q04DX002 (ip), vehicle: distilled water + Tween-80 87 % of control | dose: 200.0 mg/kg/injection, schedule: Q04DX002 (ip), vehicle: distilled water + Tween-80 90 % of control | dose: 400.0 mg/kg/injection, schedule: Q04DX002 (ip), vehicle: distilled water + Tween-80 98 % of control

CCC(C)C(NC(=O)C1CCCN1C(=O)OCc1ccccc1)C(=O)O (stereo not drawn) (Cbz-Pro-Ile-OH; configuration not given here)
inactive: [10] 100 % of control | [11] 106 % of control | [12] 98 % of control

COC(=O)/C=C/c1cc[n+]([O-])cc1
inactive: dose: 50.0 mg/kg/injection, schedule: Q01DX005 (ip), vehicle: saline 93 % of control | dose: 100.0 mg/kg/injection, schedule: Q01DX005 (ip), vehicle: saline 101 % of control | dose: 200.0 mg/kg/injection, schedule: Q01DX005 (ip), vehicle: saline 101 % of control

COC(=O)c1c(/C(=N/Nc2ccc([N+](=O)[O-])cc2)[N+](=O)[O-])ssc1=N
inactive: [4] 103 % of control | [5] 97 % of control | [6] 103 % of control

O=C(O)c1ccc(NC(=O)c2ccco2)cc1
inactive: [1] 88 % of control | [2] 97 % of control | [3] 89 % of control

CC[N+](CC)=c1ccc2nc3c(cc(NCc4ccccc4)c4ccccc43)oc-2c1
inactive: dose: 12.5 mg/kg/injection, schedule: Q01DX005 (ip), vehicle: saline with Tween-80 103 % of control | dose: 25.0 mg/kg/injection, schedule: Q01DX005 (ip), vehicle: saline with Tween-80 100 % of control | [10] 105 % of control and 107 % of control

O=C(NC1C=Nc2ccc([N+](=O)[O-])cc2NC1=O)c1ccc(Cl)cc1 (stereo not given)
inactive: dose: 60.0 mg/kg/injection, schedule: Q01DX005 (ip), vehicle: Klucel (hydroxypropylcellulose) (HPC) 91 % of control | dose: 120.0 mg/kg/injection, schedule: Q01DX005 (ip), vehicle: Klucel (hydroxypropylcellulose) (HPC) 93 % of control | dose: 240.0 mg/kg/injection, schedule: Q01DX005 (ip), vehicle: Klucel (hydroxypropylcellulose) (HPC) 92 % of control

CC(C)(CO)CBr
inactive: dose: 100.0 mg/kg/injection, schedule: Q01DX009 (ip), vehicle: saline sonified 100 % of control | dose: 200.0 mg/kg/injection, schedule: Q01DX009 (ip), vehicle: saline sonified 95 % of control | dose: 400.0 mg/kg/injection, schedule: Q01DX009 (ip), vehicle: saline sonified 95 % of control

CN1C(c2ccccc2)CC(C)(O)CC1c1ccccc1 (stereo not given)
inactive: [7] 97 % of control | [8] 98 % of control

CCO/C=C1/N=C(c2ccc(Cl)c([N+](=O)[O-])c2)OC1=O
inactive: [7] 108 % of control | [8] 106 % of control | [9] 107 % of control

O=S(=O)(Cc1cccs1)c1ncc(Br)cn1
inactive: [13] 106 % of control | [14] 106 % of control | [4] 111 % of control and 113 % of control | [5] 117 % of control

CNc1nnnc2c1sc1ccccc12
inactive: dose: 100.0 mg/kg/injection, schedule: Q01DX001 (ip), vehicle: saline with Tween-80 105 % of control | dose: 200.0 mg/kg/injection, schedule: Q01DX001 (ip), vehicle: saline with Tween-80 102 % of control | dose: 400.0 mg/kg/injection, schedule: Q01DX001 (ip), vehicle: saline with Tween-80 104 % of control

N=C(N)N
inactive: [1] 100 % of control | [2] 100 % of control

O=C1C=CC(=O)N1c1ccc(Cl)cc1
inactive: dose: 1.0 mg/kg/injection, schedule: Q01DX009 (ip), vehicle: Klucel (hydroxypropylcellulose) (HPC) 107 % of control | dose: 1.25 mg/kg/injection, schedule: Q01DX009 (ip), vehicle: Klucel (hydroxypropylcellulose) (HPC) 93 % of control | dose: 2.0 mg/kg/injection, schedule: Q01DX009 (ip), vehicle: Klucel (hydroxypropylcellulose) (HPC) 104 % of control | dose: 2.5 mg/kg/injection, schedule: Q01DX009 (ip), vehicle: Klucel (hydroxypropylcellulose) (HPC) 96 % of control | dose: 4.0 mg/kg/injection, schedule: Q01DX009 (ip), vehicle: Klucel (hydroxypropylcellulose) (HPC) 104 % of control | dose: 5.0 mg/kg/injection, schedule: Q01DX009 (ip), vehicle: Klucel (hydroxypropylcellulose) (HPC) 89 % of control | dose: 8.0 mg/kg/injection, schedule: Q01DX009 (ip), vehicle: Klucel (hydroxypropylcellulose) (HPC) 102 % of control | dose: 10.0 mg/kg/injection, schedule: Q01DX009 (ip), vehicle: Klucel (hydroxypropylcellulose) (HPC) 93 % of control

COc1ccccc1NC(=O)CC(=O)N1N=C(C)C(N=Nc2ccc(I)cc2)C1=O (stereo not given)
inactive: [10] 95 % of control | [11] 100 % of control | [12] 92 % of control

COc1cc(C/C(=C\c2ccc(OC)c(OCc3ccccc3)c2)[N+](=O)[O-])ccc1OCc1ccccc1
inactive: dose: 9.38 mg/kg/injection, schedule: Q04DX003 (ip), vehicle: Klucel (hydroxypropylcellulose) (HPC) 100 % of control | dose: 18.75 mg/kg/injection, schedule: Q04DX003 (ip), vehicle: Klucel (hydroxypropylcellulose) (HPC) 100 % of control | dose: 37.5 mg/kg/injection, schedule: Q04DX003 (ip), vehicle: Klucel (hydroxypropylcellulose) (HPC) 100 % of control

Nc1cccc(C(=O)Nc2ccc3c(O)c(N=Nc4ccccc4)c(S(=O)(=O)O)cc3c2)c1
inactive: [4] 103 % of control | [5] 107 % of control | [6] 103 % of control

O=C1c2ccc3ccccc3c2CCC1C1([n+]2ccccc2)CCc2c(ccc3ccccc23)C1=O (stereo not given)
inactive: dose: 6.25 mg/kg/injection, schedule: Q01DX005 (ip), vehicle: Klucel (hydroxypropylcellulose) (HPC) 99 % of control and 109 % of control | [13] 100 % of control and 103 % of control and 98 % of control | [14] 99 % of control and 100 % of control and 112 % of control

O=C1C2OC2C(=O)C2C3C=CC(C3)C12 (stereo not given)
inactive: dose: 75.0 mg/kg/injection, schedule: Q04DX002 (ip), vehicle: saline with Tween-80 99 % of control | dose: 150.0 mg/kg/injection, schedule: Q04DX002 (ip), vehicle: saline with Tween-80 96 % of control | dose: 300.0 mg/kg/injection, schedule: Q04DX002 (ip), vehicle: saline with Tween-80 95 % of control
